Experiments:
Format in all cases: in vivo
[1] = tested on: broiler chicken; experiment: Animal body weight and daily weight gain, broiler study with silicium in drinking water; conditions: for BW D0 (LSM): day 0; for BW D14 (LSM): day 14; for BW D33 (LSM): day 33
Protocol: A study was conducted to investigate the effect of silicium supplementation in drinking water of broiler chicken on their performance, locomotive system, skin healing and bone formation. Silicium was supplemented in 2 treatment groups. A third group was used as control and not treated with silicium. Silicium-monomethylsilanetriol (Si-MMST) was administrated at 2 different concentrations. […] These refer to the final silicium concentrations as measured by ICP-AES. Birds were moreover reared on humidified bedding material to simulate bad housing conditions and induce mild locomotive and skin complications. During the study, performance was assessed by weighing birds and monitoring feed intake on specific time points, separating the study in a starter, grower and finisher period. Additionally, mobility of the birds was assessed at the end of the grower (D33) and finisher period (D41) by means of gait scoring (Kestin et al., 1992). At the end of the trial (D41), footpad and chest lesions, femur head necrosis and tibia dyschondroplasy were assessed by qualified veterinarians, which also isolated 1 tibia per bird for bone strength and composition analysis. The main results of this study are summarizes in table 1.
Average daily weight gain (DWG) for example in starter period (D0-D14) was calculated, using following formula: […]
Similar formula was used to calculate the DWG for all the experimental periods. Table 2 and 3 respectively show the body weight (BW) and daily weight gain (DWG) for the different time points or experimental periods.

[2] = tested on: broiler chicken; experiment: Feed consumption and feed conversion
Protocol: (§1) A study was conducted to investigate the effect of silicium supplementation in drinking water of broiler chicken on their performance, locomotive system, skin healing and bone formation. Silicium was supplemented in 2 treatment groups. A third group was used as control and not treated with silicium. Silicium-monomethylsilanetriol (Si-MMST) was administrated at 2 different concentrations. More specific, Si-MMST was added to drinking water at 0.3 mg/l and 1.48 mg/l. These refer to the final silicium concentrations as measured by ICP-AES. Birds were moreover reared on humidified bedding material to simulate bad housing conditions and induce mild locomotive and skin complications. During the study, performance was assessed by weighing birds and monitoring feed intake on specific time points, separating the study in a starter, grower and finisher period. Additionally, mobility of the birds was assessed at the end of the grower (D33) and finisher period (D41) by means of gait scoring (Kestin et al., 1992). At the end of the trial (D41), footpad and chest lesions, femur head necrosis and tibia dyschondroplasy were assessed by qualified veterinarians, which also isolated 1 tibia per bird for bone strength and composition analysis. The main results of this study are summarizes in table 1.
The total feed weight was measured per pen when switching between feed compositions. The feed weight (“Feed IN”) was measured and recorded on D0, D14, D33 and D41. Two pens during grower period and all pens during finisher period were supplemented with extra feed to enable at libitum feeding. This extra feed was also weighed and recorded as “Feed IN”. The remaining feed in each pen (“Feed OUT”) was weighed and recorded on D14, D33 and D41. The feed intake (=difference in feed weight at beginning and the end of the experimental period) was calculated for each group per study period. The average daily feed intake (DFI) was calculated for the experimental period using the feed intake data by using following formula: […]
The Feed Conversion Ratio (FCR) was calculated for each of the above mentioned study periods, using following formula: […]

[3] = tested on: broiler chicken; experiment: Gait scoring (Kestin et al., 1992); conditions: day 33
Protocol: as §1, with “The main results of this study are summarizes in table 1.” left out
On D33 and D41, mobility of the birds was evaluated individually by using the gait scoring chart as described by Kestin et al., 1992. […]

[4] = tested on: broiler chicken; experiment: Footpad and chest lesion scores; set-up: Footpad lesion score (mean) / Chest lesion score (mean): scale not given here; conditions: D41
Protocol: as §1
More specific, the average footpad lesion score decreased from 1.31 in the UC to 0.9 in the 0.3 mg/l Si-MMS treatment group.

[5] = 0.3 mg/l Si-MMST in drinking water
[6] = 1.48 mg/l Si-MMST in drinking water

C[Si](O)(O)O [Si-MMST, monomethylsilanetriol]
BW D0 (LSM) ([1]; 0.3 mg/l Si-MMST in drinking water (Si-MMST 1)): 48 g | DWG D0-14 (LSM) [1, 5]: 25.6 g | DWG D0-41 (LSM) ([1]; 0.3 mg/l Si-MMST in drinking water, D0-41): 63.1 g | DWG D14-33 (LSM) [1, 5]: 70.6 g | DWG D33-41 (LSM) [1, 5]: 111.1 g | BW D14 (LSM) [1, 5]: 407 g | BW D33 (LSM) [1, 5]: 1748 g | BW D41 (LSM) ([1]; 0.3 mg/l Si-MMST in drinking water, day 41): 2636 g | DWG over the complete study period (D0-D41) versus control ([1]; 1.433 mg/l Si-MMST in drinking water, D0-D41): significantly increased | body weight on day 41 versus control ([1]; 1.433 mg/l Si-MMST in drinking water, day 41): significantly increased | BW D0 (LSM) ([1]; 1.48 mg/l Si-MMST in drinking water (Si-MMST 2)): 48 g | DWG D0-14 (LSM) [1, 6]: 25.8 g | DWG D14-33 (LSM) [1, 6]: 77.6 g | DWG D33-41 (LSM) [1, 6]: 111.1 g | BW D14 (LSM) [1, 6]: 410 g | BW D33 (LSM) [1, 6]: 1883 g | BW on day 41 ([1]; 1.48 mg/l Si-MMST in drinking water, day 41, UC 2.622 kg): 2.775 kg | DFI D0-14 (mean) [2, 5]: 24.9 g | FCR D0-14 (mean) [2, 5]: 1.0 | DFI D0-41 (mean) [2, 5]: 117.4 g | FCR D0-41 (mean) [2, 5]: 1.9 | DFI D14-33 (mean) [2, 5]: 141.2 g | FCR D14-33 (mean) [2, 5]: 2.0 | DFI D33-41 (mean) [2, 5]: 207.0 g | FCR D33-41 (mean) [2, 5]: 1.9 | DFI D0-14 (mean) [2, 6]: 25.0 g | FCR D0-14 (mean) [2, 6]: 1.0 | DFI D0-41 (mean) [2, 6]: 114.4 g | FCR D0-41 (mean) [2, 6]: 1.8 | DFI D14-33 (mean) [2, 6]: 132.7 g | FCR D14-33 (mean) [2, 6]: 1.7 | DFI D33-41 (mean) [2, 6]: 218.5 g | FCR D33-41 (mean) [2, 6]: 2.1 | daily feed intake versus control ([2]; MMST supplemented treatment groups, all study periods and D0-D41): higher than the control | Gait score D33 (mean) [3, 5]: 0.26 | Gait score D33 (mean) [3, 6]: 0.27 | Chest lesion score (mean) [4, 5]: 0.02 | Chest lesion, number of birds with score 0 [4, 5]: 48 | Chest lesion, number of birds with score 1 [4, 5]: 1 | Footpad lesion score (mean) [4, 5]: 0.9 | Footpad lesion, number of birds with score 0 [4, 5]: 19 | Footpad lesion, number of birds with score 1 [4, 5]: 16 | Footpad lesion, number of birds with score 2 [4, 5]: 14 | Chest lesion score (mean) [4, 6]: 0.00 | Chest lesion, number of birds with score 0 [4, 6]: 45 | Chest lesion, number of birds with score 1 [4, 6]: 0 | Footpad lesion score (mean) [4, 6]: 1.04

From US20220408756A1, “POULTRY FEED AND DRINKING WATER COMPOSITION COMPRISING MONOMETHYLSILANETRIOL” (RXW Group nv, priority 2019, published 2022)
